Read-outs that look alike come from different tables or passages of the source. *1 amine or outer side, *2 acyl side, *3 side chain or, on linkers, in order; H or OH if unused. Where a SMILES comes first, the peptide text is derived from it. Side-chain parts run from the residue outwards. [ ]: non-standard residue; d: D form. The star is where a group is joined. αMePhe(2-F) = C[C@](N)(Cc1ccccc1F)C(=O)O; γGlu = O=C(O)[C@H](CCC(=O)[*:2])N[*:1]; C14 diacid = O=C(O)CCCCCCCCCCCCC(=O)*; αMeY = C[C@](N)(Cc1ccc(O)cc1)C(=O)O; 4Pal = N[C@@H](Cc1ccncc1)C(=O)O; αMeL = CC(C)C[C@](C)(N)C(=O)O; Orn = NCCC[C@H](N)C(=O)O; AEEA = NCCOCCOCC(=O)O; Aib = CC(C)(N)C(=O)O Some results are limits rather than exact numbers.

For four compounds, EC50 and Emax results are on record in patent US20230265151A1, “GIP/GLP1 CO-AGONIST COMPOUNDS” (priority 2020, published 2023).

Common to all, as to assay type: cell-based
For assay [1], the target named is T1, hGCGR (Homo sapiens, UniProt P47871).
T1 construct: expressed in transfected cells
Kind of assay: Functional cAMP formation (HTRF) in HEK-293 clonal cells expressing hGCGR, 0.1% bovine casein, without or with 1.0% human serum albumin. An outline of the steps: (§1)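 Cells were stimulated with peptide for 30 min at 37° C, then intracellular cAMP was measured by competitive HTRF (665/620 nm ratio) and converted to nM using a cAMP standard curve. Relative EC50 and Emax came from four-parameter logistic fits of percent maximal response against peptide concentration.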
A general note: Cyclic AMP is a second messenger, typically raised through Gs and lowered through Gi signalling.

For assay [2], the target named is T2, hGIPR (Homo sapiens, UniProt P48546).
T2 construct: expressed in transfected cells
T2 sequence (P48546 22-466): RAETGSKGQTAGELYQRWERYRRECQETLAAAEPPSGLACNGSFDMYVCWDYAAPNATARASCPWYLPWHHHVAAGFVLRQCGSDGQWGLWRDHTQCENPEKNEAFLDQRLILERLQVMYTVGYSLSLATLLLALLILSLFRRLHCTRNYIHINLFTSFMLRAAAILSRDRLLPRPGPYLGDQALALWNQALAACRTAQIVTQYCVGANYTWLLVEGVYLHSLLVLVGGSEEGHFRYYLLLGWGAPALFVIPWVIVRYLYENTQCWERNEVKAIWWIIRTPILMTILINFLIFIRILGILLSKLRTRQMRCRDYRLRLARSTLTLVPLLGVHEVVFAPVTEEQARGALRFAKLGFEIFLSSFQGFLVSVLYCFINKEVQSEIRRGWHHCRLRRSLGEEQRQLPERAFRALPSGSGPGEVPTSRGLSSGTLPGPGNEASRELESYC
In words: Functional cAMP formation (HTRF) in HEK-293 clonal cells expressing hGIPR, 0.1% bovine casein, without or with 1.0% human serum albumin. Particulars: for EC50: geometric mean. The method, boiled down: as §1

In assay [3] the target is hGLP-1R (Homo sapiens, UniProt P43220). Kind of assay: Functional cAMP formation (HTRF) in HEK-293 clonal cells expressing hGLP-1R, 0.1% bovine casein, without or with 1.0% human serum albumin. The settings on record: for EC50: read-out: hGLP-1R EC50, nM (SEM, n). More on the design: expressed in transfected cells. The method, boiled down:
as §1

[4] abbreviates: 0.1% bovine casein and 1.0% human serum albumin, 37° C., geometric mean, read-out: hGCGR EC50, nM (SEM, n).
[5] abbreviates: cAMP, incubated at 37° C., 0.1% bovine casein (no human serum albumin), geometric mean, read-out: hGCGR EC50, nM (SEM, n).
Setting [6] is: HEK293, 0.1% bovine casein and 1.0% human serum albumin, 37° C., percent of maximal response to GIP(1-42)NH2, read-out: hGIPR Emax, % ± SEM.
Setting [7] is: cAMP, incubated at 37° C., 0.1% bovine casein (no human serum albumin), read-out: hGIPR EC50, nM (SEM, n).

T1 sequence (P47871 26-477): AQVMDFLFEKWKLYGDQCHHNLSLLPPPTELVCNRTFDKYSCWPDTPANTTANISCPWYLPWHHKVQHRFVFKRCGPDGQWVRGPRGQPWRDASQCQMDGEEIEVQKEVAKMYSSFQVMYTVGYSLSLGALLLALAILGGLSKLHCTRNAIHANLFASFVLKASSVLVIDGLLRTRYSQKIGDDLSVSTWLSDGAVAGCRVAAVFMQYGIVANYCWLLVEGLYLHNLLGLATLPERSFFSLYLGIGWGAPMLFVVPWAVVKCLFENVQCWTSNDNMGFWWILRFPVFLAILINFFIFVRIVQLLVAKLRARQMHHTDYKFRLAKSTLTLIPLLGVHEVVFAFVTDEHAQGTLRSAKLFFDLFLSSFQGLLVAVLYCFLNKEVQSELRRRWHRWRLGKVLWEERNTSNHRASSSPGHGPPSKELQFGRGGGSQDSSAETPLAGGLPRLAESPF
Sequence of hGLP-1R (P43220 24-463): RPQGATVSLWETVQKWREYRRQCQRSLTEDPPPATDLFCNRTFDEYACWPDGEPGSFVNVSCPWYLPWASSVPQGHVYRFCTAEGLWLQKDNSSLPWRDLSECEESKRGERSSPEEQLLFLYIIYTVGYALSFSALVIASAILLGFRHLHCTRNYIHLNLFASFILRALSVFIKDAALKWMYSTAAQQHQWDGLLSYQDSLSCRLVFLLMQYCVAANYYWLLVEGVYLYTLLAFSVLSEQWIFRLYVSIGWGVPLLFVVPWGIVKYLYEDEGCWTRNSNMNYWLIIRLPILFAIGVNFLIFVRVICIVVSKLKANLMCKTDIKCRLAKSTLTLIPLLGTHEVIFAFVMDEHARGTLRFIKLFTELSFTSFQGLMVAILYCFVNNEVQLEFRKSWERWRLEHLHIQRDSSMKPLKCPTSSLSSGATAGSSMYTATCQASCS

On to `CC[C@H](C)[C@H](NC(=O)[C@H](CCCN)NC(=O)[C@H](CC(=O)O)NC(=O)[C@H](CC(C)C)NC(=O)[C@](C)(CC(C)C)NC(=O)[C@@H](NC(=O)C(C)(C)NC(=O)[C@H](Cc1ccc(O)cc1)NC(=O)[C@H](CC(=O)O)NC(=O)[C@H](CO)NC(=O)[C@@H](NC(=O)[C@](C)(Cc1ccccc1F)NC(=O)[C@@H](NC(=O)CNC(=O)[C@H](CCC(=O)O)NC(=O)C(C)(C)NC(=O)[C@@H](N)Cc1ccc(O)cc1)[C@@H](C)O)[C@@H](C)O)[C@@H](C)CC)C(=O)N[C@@H](C)C(=O)N[C@@H](CCC(N)=O)C(=O)NC(C)(C)C(=O)N[C@@H](CCC(=O)O)C(=O)N[C@@H](Cc1ccccc1)C(=O)N[C@H](C(=O)N[C@@H](CCCCNC(=O)COCCOCCNC(=O)CC[C@H](NC(=O)COCCOCCNC(=O)COCCOCCNC(=O)CCCCCCCCCCCCC(=O)O)C(=O)O)C(=O)N[C@@](C)(Cc1ccc(O)cc1)C(=O)N[C@@H](CC(C)C)C(=O)N[C@H](C(=O)N[C@@H](CCCCNC(=O)COCCOCCNC(=O)CC[C@H](NC(=O)COCCOCCNC(=O)COCCOCCNC(=O)CCCCCCCCCCCCC(=O)O)C(=O)O)C(=O)NCC(=O)NCC(=O)N1CCC[C@H]1C(=O)N[C@@H](CO)C(=O)N[C@@H](CO)C(=O)NCC(=O)N[C@@H](C)C(=O)N1CCC[C@H]1C(=O)N1CCC[C@H]1C(=O)N1CCC[C@H]1C(=O)N[C@@H](CO)C(N)=O)[C@@H](C)CC)[C@@H](C)CC` [Example 364], for which the EC50 (as a rule, the concentration giving half of the maximal effect) in assay [1] (cAMP, 37° C., 0.1% bovine casein (no human serum albumin), geometric mean, read-out: hGCGR EC50, nM (SEM, n)) is > 9950 nM; in assay [1] (cAMP, 37° C., 0.1% bovine casein and 1.0% human serum albumin, geometric mean (SEM, n), read-out: hGCGR EC50, nM (SEM, n)), > 9950 nM; in assay [2] (cAMP, 37° C., 0.1% bovine casein (no human serum albumin), read-out: hGIPR EC50, nM (SEM, n)), 0.0111 nM; in assay [3] (cAMP, 37° C., 0.1% bovine casein (no human serum albumin), geometric mean) it was 0.347 nM; in assay [3] (cAMP, 37° C., 0.1% bovine casein and 1.0% human serum albumin, geometric mean (SEM, n)), 13 nM. The Emax (in general, the maximal effect, on the per cent scale that the assay sets) in assay [2] (HEK293, cAMP, 37° C., 0.1% bovine casein and 1.0% human serum albumin, percent of maximal response to GIP(1-42)NH2, read-out: hGIPR Emax, % ± SEM) was 89.1%.

`CC[C@H](C)[C@H](NC(=O)[C@H](CCCN)NC(=O)[C@H](CC(=O)O)NC(=O)[C@H](CC(C)C)NC(=O)[C@](C)(CC(C)C)NC(=O)[C@@H](NC(=O)[C@H](CO)NC(=O)[C@H](Cc1ccncc1)NC(=O)[C@H](CC(=O)O)NC(=O)[C@H](CO)NC(=O)[C@@H](NC(=O)[C@](C)(Cc1ccccc1F)NC(=O)[C@@H](NC(=O)CNC(=O)[C@H](CCC(=O)O)NC(=O)C(C)(C)NC(=O)[C@@H](N)Cc1ccc(O)cc1)[C@@H](C)O)[C@@H](C)O)[C@@H](C)CC)C(=O)N[C@@H](C)C(=O)N[C@@H](CCC(N)=O)C(=O)NC(C)(C)C(=O)N[C@@H](CCCCNC(=O)COCCOCCNC(=O)COCCOCCNC(=O)CC[C@H](NC(=O)CCCc1ccc(C(C)(C)C)cc1)C(=O)O)C(=O)N[C@@H](Cc1ccccc1)C(=O)N[C@H](C(=O)N[C@H](CCC(=O)O)C(=O)N[C@@](C)(Cc1ccc(O)cc1)C(=O)N[C@@H](CC(C)C)C(=O)N[C@H](C(=O)N[C@@H](CCC(=O)O)C(=O)NCC(=O)NCC(=O)N1CCC[C@H]1C(=O)N[C@@H](CO)C(=O)N[C@@H](CO)C(=O)NCC(=O)N[C@@H](C)C(=O)N1CCC[C@H]1C(=O)N1CCC[C@H]1C(=O)N1CCC[C@H]1C(=O)N[C@@H](CO)C(=O)N[C@@H](CCCCNC(=O)COCCOCCNC(=O)COCCOCCNC(=O)CC[C@H](NC(=O)CCCc1ccc(C(C)(C)C)cc1)C(=O)O)C(N)=O)[C@@H](C)CC)[C@@H](C)CC` [Example 205]: the EC50 is > 9950 nM in assay [1] (setting [4]); > 9950 nM in assay [1] (setting [5]); 0.261 nM in assay [2] (0.1% bovine casein and 1.0% human serum albumin, 37° C., read-out: hGIPR EC50, nM (SEM, n)); 0.0264 nM in assay [2] (setting [7]); 2.18 nM in assay [3] (0.1% bovine casein and 1.0% human serum albumin, 37° C., geometric mean). Moreover, in assay [2] (setting [6]), the Emax is 72.1%.

Take `CC[C@H](C)[C@H](NC(=O)[C@H](CCCN)NC(=O)[C@H](CC(=O)O)NC(=O)[C@H](CC(C)C)NC(=O)[C@](C)(CC(C)C)NC(=O)[C@@H](NC(=O)[C@H](CO)NC(=O)[C@H](Cc1ccncc1)NC(=O)[C@H](CC(=O)O)NC(=O)[C@H](CO)NC(=O)[C@@H](NC(=O)[C@](C)(Cc1ccccc1F)NC(=O)[C@@H](NC(=O)CNC(=O)[C@H](CCC(=O)O)NC(=O)C(C)(C)NC(=O)[C@@H](N)Cc1ccc(O)cc1)[C@@H](C)O)[C@@H](C)O)[C@@H](C)CC)C(=O)N[C@@H](C)C(=O)N[C@@H](CCC(N)=O)C(=O)NC(C)(C)C(=O)N[C@@H](CCC(=O)O)C(=O)N[C@@H](Cc1ccccc1)C(=O)N[C@H](C(=O)N[C@H](CCC(=O)O)C(=O)N[C@@](C)(Cc1ccc(O)cc1)C(=O)N[C@@H](CC(C)C)C(=O)N[C@H](C(=O)N[C@@H](CCCCNC(=O)COCCOCCNC(=O)COCCOCCNC(=O)COCCOCCNC(=O)CC[C@H](NC(=O)CCCCCCCCCCCCC(=O)O)C(=O)O)C(=O)NCC(=O)NCC(=O)N1CCC[C@H]1C(=O)N[C@@H](CO)C(=O)N[C@@H](CO)C(=O)NCC(=O)N[C@@H](C)C(=O)N1CCC[C@H]1C(=O)N1CCC[C@H]1C(=O)N1CCC[C@H]1C(=O)N[C@@H](CO)C(=O)N[C@@H](CCCCNC(=O)COCCOCCNC(=O)COCCOCCNC(=O)COCCOCCNC(=O)CC[C@H](NC(=O)CCCCCCCCCCCCC(=O)O)C(=O)O)C(N)=O)[C@@H](C)CC)[C@@H](C)CC` [Example 229] (H-Y[Aib]EGT[αMePhe(2-F)]TSD[4Pal]SI[αMeL]LD[Orn]IAQ[Aib]EFI[dE][αMeY]LIK([AEEA-AEEA-AEEA-γGlu-C14 diacid])GGPSSGAPPPSK([AEEA-AEEA-AEEA-γGlu-C14 diacid])-NH2): the EC50 in assay [1] (setting [4]) is > 9950 nM; in assay [1] (setting [5]), > 9950 nM; in assay [2] (setting [7]), 0.0253 nM; in assay [3] (cAMP, incubated at 37° C., 0.1% bovine casein (no human serum albumin), geometric mean) it was 2.25 nM. Besides, the Emax in assay [2] (setting [6]) was determined as 80.5%; in assay [3] (HEK293, 0.1% bovine casein and 1.0% human serum albumin, 37° C., percent of maximal response to GLP-1(7-36)NH2, read-out: hGLP-1R Emax, % ± SEM) it was 99%; in assay [3] (HEK293, percent of maximal response to GLP-1(7-36)NH2, 37° C., 0.1% bovine casein, arithmetic mean, read-out: hGLP-1R Emax, % ± SEM) it was 94.3%.

As to `CC[C@H](C)[C@H](NC(=O)[C@H](CCCN)NC(=O)[C@H](CC(=O)O)NC(=O)[C@H](CC(C)C)NC(=O)[C@](C)(CC(C)C)NC(=O)[C@@H](NC(=O)[C@H](CO)NC(=O)[C@H](Cc1ccncc1)NC(=O)[C@H](CC(=O)O)NC(=O)[C@H](CO)NC(=O)[C@@H](NC(=O)[C@](C)(Cc1ccccc1F)NC(=O)[C@@H](NC(=O)CNC(=O)[C@H](CCC(=O)O)NC(=O)C(C)(C)NC(=O)[C@@H](N)Cc1ccc(O)cc1)[C@@H](C)O)[C@@H](C)O)[C@@H](C)CC)C(=O)N[C@@H](C)C(=O)N[C@@H](CCC(N)=O)C(=O)NC(C)(C)C(=O)N[C@@H](CCC(=O)O)C(=O)N[C@@H](Cc1ccccc1)C(=O)N[C@H](C(=O)N[C@@H](CCCCNC(=O)COCCOCCNC(=O)COCCOCCNC(=O)CCCCCCCCCCCCC(=O)O)C(=O)N[C@@](C)(Cc1ccc(O)cc1)C(=O)N[C@@H](CC(C)C)C(=O)N[C@H](C(=O)N[C@@H](CCC(=O)O)C(=O)NCC(=O)NCC(=O)N1CCC[C@H]1C(=O)N[C@@H](CO)C(=O)N[C@@H](CO)C(=O)NCC(=O)N[C@@H](C)C(=O)N1CCC[C@H]1C(=O)N1CCC[C@H]1C(=O)N1CCC[C@H]1C(=O)N[C@@H](CO)C(=O)N[C@@H](CCCCNC(=O)COCCOCCNC(=O)COCCOCCNC(=O)CCCCCCCCCCCCC(=O)O)C(N)=O)[C@@H](C)CC)[C@@H](C)CC` [Example 194], the EC50 in assay [1] (hGCGR EC50, nM (SEM, n), 0.1% bovine casein and 1.0% human serum albumin, 37° C., geometric mean) was > 9950 nM; in assay [1] (hGCGR EC50, nM (SEM, n), cAMP, incubated at 37° C., 0.1% bovine casein (no human serum albumin), geometric mean), > 9950 nM; in assay [2] (hGIPR EC50, nM (SEM, n), 0.1% bovine casein and 1.0% human serum albumin, 37° C.), 1.24 nM. The Emax in assay [2] (HEK293, read-out: hGIPR Emax, % ± SEM, 0.1% bovine casein and 1.0% human serum albumin, 37° C., percent of maximal response to GIP(1-42)NH2) came to 80.7 ± 7.81%; in assay [2] (HEK293, read-out: hGIPR Emax, % ± SEM, percent of maximal response to GIP(1-42)NH2, 37° C., 0.1% bovine casein, arithmetic mean), 93.1 ± 1.05%; in assay [3] (HEK293, read-out: hGLP-1R Emax, % ± SEM, 0.1% bovine casein and 1.0% human serum albumin, 37° C., percent of maximal response to GLP-1(7-36)NH2), 109 ± 10.5%.
